Data from EP0214933A2, “Mixture preparations for the treatment of malaria” (CIBA-GEIGY AG, priority 1985, dated 1987).
Where two headings read alike, the source gives them in different places.

Assays:
[1] = system: Plasmodium falciparum T96 Zellinie A; test: Growth inhibition of chloroquine-sensitive P. falciparum cultured in human erythrocytes; assay type: cell-based; settings: for IC50 / IC20: Plasmodium falciparum, Erythrocyte; for IC50: over 2 cycles
Excerpt: (§1) • a) Durch konventionelles Züchten des Stammes Plasmodium falciparum T96 in einer 2 % (V/V) Suspension von humanen Erythrozyten wird der Grundorganismus-Zellinie A fortgepflanzt, welche eine normale Empfindlichkeit gegenüber Chloroquin aufweist. • b) Zellinie A des obigen Stammes wird unter analogen Standardbedingungen wie unter a) gezüchtet, jedoch mit Zusatz von immer ansteigenden Konzentrationen von Chloroquin, bis eine Chloroquinresistente Zellinie B resultiert, welche weiterhin in Kulturmedien mit einer 500 nM-Konzentration von Chloroquin andauernd normales Wachstum (dieselbe Wachstumsraten wie Zellinie A) aufweist.
(§2) • I. Die Züchtung von Testorganismen erfolgt unter den für Züchtung von Plasmodien üblichen Bedingungen auf einer 2 % Suspension von humanen Erythrozyten, supplementiert mit 50 mg/1 Hypoxanthin und gegebenenfalls unter Zugabe der getesteten Hemmsubstanz in gewünschter Konzentration. Die initiale Parasitämie (- der prozentuelle Anteil der zu Beginn von Plasmodien infizierten Erythrozyten) beträgt 1-2 %. Das Resultat (Hemmwirkung) wird als IC50 ausgewertet, d.h. jene Konzentration des Wirkstoffes, die eine Senkung der finalen Parasitämie um 50 %, d.h. eine 50%ige Hemmung des Wachstums, verursacht. • II. In einer alternativen Versuchsanordnung wird beim Einhalten aller übrigen Bedingungen ohne Zugabe von Hypoxanthin und mit einer initialen Parasitämie von 0,5 % gearbeitet.

[2] = system: Plasmodium falciparum T96 Chloroquinresistente Zellinie B; test: Growth inhibition of chloroquine-resistant P. falciparum cultured in human erythrocytes; assay type: cell-based; settings: for IC50: Plasmodium falciparum, Erythrocyte, over 2 cycles
Excerpt: as §1, §2

[3] = system: P. vinckei; settings: cited from earlier work
[4] = system: Plasmodium falciparum in Kultur an menschlichen Erythrozyten; settings: culture on human erythrocytes; cited from earlier work

Which results are given for `CC(=O)N(O)CCCCCNC(=O)CCC(=O)N(O)CCCCCNC(=O)CCC(=O)N(O)CCCCCN` [Desferrioxamin B, 6,17,28-Trihydroxy-7,10,18,21,29-pentaoxo-6,11,17,22,28-pentaaza-triacontanylamin]?
IC50 ([1]; Versuchsanordnung I, read-out: IC50): 17000 ± 3000 nM; IC50 ([1]; Versuchsanordnung II, read-out: IC50): 5000 ± 2000 nM; IC50 ([2]; Versuchsanordnung I, without chloroquine in the test medium): 6000 ± 1500 nM; IC50 ([2]; Versuchsanordnung II, without chloroquine in the test medium): 2000 ± 1000 nM; Konzentration für dieselbe Wachstumshemmung in the presence of chloroquine ([2]; in the presence of a chloroquine concentration inactive by itself, compared with no chloroquine): halbiert sich noch weiter; Konzentration für dieselbe Wachstumshemmung, resistant strain compared with sensitive strain ([2]; without chloroquine, compared with normally sensitive strain under the same conditions): etwa dreimal niedrigeren Konzentration; Wachstum des Parasiten ([3]; 0,2 g/kg): deutlich hemmt; Wachstum des Parasiten ([3]; 1,0 g/kg): vollständig tötet; Wachstum (in vitro) [4]: nicht nur in ihrem Wachstum gehemmt, sondern auch getötet

Which “Wachstumshemmung (result in words)” value ([1]; Hauptversuch II with this substance in place of chloroquine, combined with Desferrioxamin B) does the source give for `COc1ncnc(NS(=O)(=O)c2ccc(N)cc2)c1OC` [Sulfadoxine] here?
The value was “Analoge Resulte”.

For `CC(=O)N(O)CCCCCNC(=O)CCC(=O)N(O)CCCCCNC(=O)CCC(=O)N(O)CCCCCN` [Desferrioxamin B (Mesylat)], which IC20 ([1]; Versuchsanordnung I, Hauptversuch II, read-out: IC20) is on record?
The IC20 was 9000 nM.

With `CCN(CC)CCCC(C)Nc1ccnc2cc(Cl)ccc12` (stereo not drawn) [Chloroquin, 7-Chlor-4-(4-diethylamino-l-methylbutylamino)chinolin] as the compound, how does the IC20 [1] read?
Its IC20 is 10 nM.

What about the IC50 ([1]; Versuchsanordnung I (50 mg/l hypoxanthine, initial parasitaemia 1-2 %)) of the same compound?
The IC50 was 50 nM.

And the IC50 ([1]; Versuchsanordnung II (no hypoxanthine, initial parasitaemia 0,5 %))?
The IC50 was 10 to 15 nM.

What about the IC50 ([2]; Versuchsanordnung I) of the same compound?
Its IC50 is about 800 nM.

And the Vermehrungsfaktor ([2]; Versuchsanordnung I, with 500 nM chloroquine in the medium, same as Zellinie A without chloroquine (within 48 hours))?
Its Vermehrungsfaktor is 7-9.
